The nature of the data set: Clearance in mouse at 0.5 mg/kg, iv. It is filed as ADME, organism-based. To be noted: in vivo.

Take `CC(C)N(C)c1ccc([C@H]2C[C@@]3(C)[C@@H](CC[C@@]3(O)C#CC(C)(C)C)[C@@H]3CCC4=CC(=O)CC[C@@H]4[C@H]32)cc1`: the clearance was 27.2 mL/min/kg.

By clearance is commonly meant the rate of elimination divided by the concentration. Read a low clearance as a low capacity for elimination.
